Results on two compounds are retold here after patent publication US9650332B1, “Prodrug of probucol and method for preparing the same” (priority 2016, dated 2017).

A short description of this series: Pharmacokinetic studies of the prodrugs of probucol in rats (oral gavage, plasma LC/MS/MS). The series is classed as in vivo. The settings on record: male, Sprague Dawley, rat, 20 mg/kg prodrug by oral gavage, overnight fasting, analyte: prodrug; for AUC(0-t): read-out: AUC0-t of the prodrug in blood; for Cmax: read-out: Cmax of the prodrug in blood; for Tmax: read-out: tmax of the prodrug in blood. The protocol: Four different kinds of probucol's prodrugs were prepared based on the example 1, 2, 3 and 4 to evaluate their pharmacodynamic and pharmacokinetic characteristics in rats.
Three Sprague Dawley Male Rats were used in each experiment for each prodrug. The laboratory animal models are provided by Shanghai Super-B&K laboratory animal Corp. Ltd. (No. Of animal license SYXK(HU)2008-0016).
Weighed 20 mg sample and dissolved it with 1 ml ethanol. Then, in turn, added 1 ml Solutol HS15 and 8 ml pH4.63 acetate buffer to make the final solution with the concentration of 2 mg/ml. The left soup were saved to run quantitative analysis.
Three Sprague Dawley male rats were given the dose of […] (volume: 10 ml/kg) drugs by oral gavage under the condition of overnight fasting.
Blood (volume: 0.1 ml) was drawn at 0.5, 1.0, 2.0, 4.0, 6.0, 8.0, 24.0 hours pre-dose and post-dose respectively to all animal subjects. Saved the blood samples in heparinized tubes and then centrifuged them for 10 minutes at […] at 4° C. The separated plasma was stored at −20° C. All the process including blood collection and blood analysis should be conducted in low temperatures. Standard meals were provided after 2 hours of dosing.
API 4000 QTRAP LC/MS/MS (Applied Biosystems Corporation, US)
LC-20AD HPLC system (Shimadzu Corporation, Japan)
The prodrug and metabolite probucol were measured at the same time. Took 25 ul rat plasma that drawn at different time points after dosing, and then added 50 ul internal standard YX1162 (200 ng/ml, prepared by acetonitrile) and 175 ul acetonitrile, vortex mixed for 3 minutes, and then centrifuged at 13500 rpm for 10 minutes. Took 10 ul supernatant to run LC/MS/MS analysis.
The prodrug and metabolite probucol were measured at the same time. Took 25 ul rat blank plasma, then added 25 ul solution of standard series to make the drug concentration 1.00, 2.00, 5.00, 25.0, 100, 500, 2000, 20000 and 40000 ng/ml. Next, added 50 ul internal standard YX1162 (200 ng/ml, prepared by acetonitrile) and 150 ul acetonitrile, then followed the same protocol shown in 3.4.
Set plasma concentration as X-axis and the ratio of chromatographic peak areas for sample and internal standard as Y-axis, then used weighted least square method (w=1/x^2) to conduct linear regression analysis.

For `CCOC(=O)OC(C)Oc1c(C(C)(C)C)cc(SC(C)(C)Sc2cc(C(C)(C)C)c(O)c(C(C)(C)C)c2)cc1C(C)(C)C` (stereo not drawn) [Example 2], the AUC(0-t) stood at 1070 ± 404 ng·h/mL, the maximum concentration (Cmax) is 268 ± 56 ng/mL and the Tmax was 2.37 ± 1.41 h.

Consider `CCOC(=O)OCOc1c(C(C)(C)C)cc(SC(C)(C)Sc2cc(C(C)(C)C)c(O)c(C(C)(C)C)c2)cc1C(C)(C)C` [Example 1], for which the AUC(0-t) is 758 ± 204 ng·h/mL, the maximum concentration (Cmax) is 218 ± 26 ng/mL and the time to peak (Tmax) was 2.17 ± 1.31 h.

One may read the Cmax as the highest concentration seen after dosing. The Tmax is the time from dosing to the highest level.
